Laboratory results from patent publication US6906205B2, “Spiro and dispiro 1,2,4-trioxolane antimalarials” (Medicines for Malaria Venture MMV, priority 2002, dated 2005).
Values after ≈ are worked out from the molar mass of the structure shown.

Key:
[1] = system: Schistosoma mansoni 21-day-old schistosomules; test: effect on 21-day-old schistosomules in mice; assay type: in vivo; details: single 200 mg/kg per os, female mice
Procedure: All groups were killed 4 weeks after treatment and the liver and intestine were removed and separated. The liver and intestine were compressed and alive male and female worms could be seen and counted. The effect of the compounds was evaluated by mean total and female worm burden.

[2] = system: P. falciparum NF54 strain (sensitive to standard antimalarials); test: semiautomated microdilution assay, [3H]-hypoxanthine incorporation, NF54 strain; assay type: cell-based, Plasmodium falciparum; details: NF54 strain, 72 h incubation
In short: (§1)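 Asynchronous stock cultures → intraerythrocytic forms; semiautomated microdilution; IC50 by logit regression.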

[3] = system: P. falciparum K1 strain (Thailand resistant to chloroquine); test: semiautomated microdilution assay, [3H]-hypoxanthine incorporation, K1 strain; assay type: cell-based, Plasmodium falciparum; details: K1 strain, 72 h incubation
In short: as §1

[4] = system: ANKA strain of P. berghei; test: single dose STI in vivo screen in infected mice; parameters: species or system Plasmodium berghei; details: for Activity (%) po / Activity (%) sc / Activity (%) SSVpo: percent reduction in parasitemia day 3 post-infection, mice; for Activity (%) po / Survival (days) po: single 10 mg/kg po in 3% ethanol and 7% Tween 80; for Activity (%) sc / Survival (days) sc: single 10 mg/kg sc in 3% ethanol and 7% Tween 80; for Activity (%) SSVpo: single po dose in standard suspending vehicle (SSV); for Survival (days) po / Survival (days) sc / Survival (days) SSVpo: untreated control 5.6 ± 0.3; for Survival (days) SSVpo: single po dose in SSV
In short: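 Groups of 3-5 Moro SPF or NMRI mice infected with the ANKA strain of P. berghei received a single dose of trioxolane on day one post-infection. The compound was given in 3% ethanol and 7% Tween 80 or in SSV (0.5% w/v CMC, 0.5% v/v benzyl alcohol, 0.4% v/v Tween 80, 0.9% w/v sodium chloride in water). Antimalarial activity was scored as percent reduction in parasitemia on day three and as survival time versus untreated controls. Survival to day 30 counted as cure.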

| SMILES | % reduction of schistosomule growth at day 21 after per os application of 200 mg/kg, FWR (%) [1] [%] | % reduction of schistosomule growth at day 21 after per os application of 200 mg/kg, TWR (%) [1] [%] | IC50 (ng/ml) NF54 [2] [ng/mL] | IC50 (ng/ml) K1 [3] [ng/mL] | Activity (%) po [4] [%] | Activity (%) sc [4] [%] | Activity (%) SSVpo [4] [%] | Survival (days) po [4] [days] | Survival (days) sc [4] [days] | Survival (days) SSVpo [4] [days] | Activity (%) po ([4]; 10 mg/kg) [%] | Activity (%) sc ([4]; 10 mg/kg) [%] | Survival (days) po ([4]; 10 mg/kg) [days] | Survival (days) sc ([4]; 10 mg/kg) [days] |
| --- | --- | --- | --- | --- | --- | --- | --- | --- | --- | --- | --- | --- | --- | --- |
| c1ccc(CON=C2CCC3(CC2)OOC2(O3)C3CC4CC(C3)CC2C4)cc1 (centres unmarked) [OZ19] | 74 | 77 | 2.7 (≈ 7.04 nM) | 1.3 (≈ 3.39 nM) | 98.3 | 99.98 | 56 | 7.5 | 13.4 | 6.0 |  |  |  |  |
| C1CC2(CCO1)OOC1(O2)C2CC3CC(C2)CC1C3 (centres unmarked) [OZ22] | 76 | 75 | 0.56 (≈ 2.1 nM) | 0.32 (≈ 1.2 nM) | 35 | 99.6 |  | 6.0 | 7.7 |  |  |  |  |  |
| CC1(C)CC(C)(C)CC2(C1)OOC1(O2)C2CC3CC(C2)CC1C3 (centres unmarked) [OZ26] | 40 | 37 | 5.0 (≈ 15.6 nM) | 3.1 (≈ 9.67 nM) | 88 | 99.9 |  | 7.0 | 9.7 |  |  |  |  |  |
| CC(C)(C)ON=C1CCC2(CC1)OOC1(O2)C2CC3CC(C2)CC1C3 (centres unmarked) [OZ28] | 87 | 81 | 2.5 (≈ 7.15 nM) | 2.1 (≈ 6.01 nM) | 93 | 99.97 |  | 7.3 | 12.3 |  |  |  |  |  |
| O=C(NN=C1CCC2(CC1)OOC1(O2)C2CC3CC(C2)CC1C3)Nc1ccccc1 (centres unmarked) [OZ30] | 12 | 16 | 1.3 (≈ 3.16 nM) | 0.65 (≈ 1.58 nM) | 0 | 86 |  | 5.3 | 9.0 |  |  |  |  |  |
| CC1(C)CCC2(CC1)OOC1(O2)C2CC3CC(C2)CC1C3 (centres unmarked) [OZ33] | 14 | 28 | 3.5 (≈ 12 nM) | 2.3 (≈ 7.87 nM) | 80 | 99.97 |  | 6.7 | 11.7 |  |  |  |  |  |
| CC(C)(C)OC(=O)N1CCC2(CC1)OOC1(O2)C2CC3CC(C2)CC1C3 (centres unmarked) [OZ35] | 63 | 73 | 2.1 (≈ 5.75 nM) | 1.7 (≈ 4.65 nM) | 74 | 99.98 |  | 6.3 | 9.3 |  |  |  |  |  |
| CS(=O)(=O)N1CCC2(CC1)OOC1(O2)C2CC3CC(C2)CC1C3 (centres unmarked) [OZ56] | 66 | 69 | 0.64 (≈ 1.86 nM) | 0.59 (≈ 1.72 nM) | 93 | 99.97 | 63 | 6.7 | 10.3 | 5.7 |  |  |  |  |
| c1cn(C[C@H]2CC[C@]3(CC2)OOC2(O3)C3CC4CC(C3)CC2C4)cn1 (some centres unmarked) [OZ145] | 83 | 80 | 0.76 (≈ 2.21 nM) | 0.50 (≈ 1.45 nM) |  |  | 99.21 |  |  | 10.7 | 99.82 | 99.87 | 8.3 | 10.7 |
| O=[N+]([O-])c1ccc(N2CCC3(CC2)OOC2(O3)C3CC4CC(C3)CC2C4)cc1 (centres unmarked) [OZ151] | 19 | 19 | 4.0 (≈ 10.4 nM) | 3.8 (≈ 9.83 nM) | 71 | 99.63 | 71 | 7.3 | 11.0 | 7.3 |  |  |  |  |
| OC12CC3CC(C1)C1(OOC4(CCC5(CC4)OCCO5)O1)C(C3)C2 (centres unmarked) [OZ152] | 11 | 19 | 7.2 (≈ 21.3 nM) | 3.2 (≈ 9.46 nM) |  |  | 12 | 6.3 |  | 6.7 | 0 | 22 |  | 6.7 |
| CN1CCN(C(=O)N2CCC3(CC2)OOC2(O3)C3CC4CC(C3)CC2C4)CC1 (centres unmarked) [OZ157] | 68 | 65 | 0.22 (≈ 0.562 nM) | 0.20 (≈ 0.511 nM) | 90 | 97 | 80 | 7.3 | 8.3 | 8.3 |  |  |  |  |
| C1CCN(C2CCC3(CC2)OOC2(O3)C3CC4CC(C3)CC2C4)CC1 (centres unmarked) [OZ159] | 19 | 19 | 0.94 (≈ 2.71 nM) | 0.70 (≈ 2.01 nM) | 34 | 98 | 31 | 6.7 | 9.0 | 6.7 |  |  |  |  |
| c1ccc(CNC2CCC3(CC2)OOC2(O3)C3CC4CC(C3)CC2C4)cc1 (centres unmarked) [OZ160] | 0 | 15 | 0.87 (≈ 2.35 nM) | 0.70 (≈ 1.89 nM) | 45 | 99.94 | 43 | 6.3 | 12.0 | 6.7 |  |  |  |  |
